Series [1] can be described thus: Ligand charge of maytansinoid conjugates. The format is physicochemical.
Series [2] has as its target human SSTR2 (Homo sapiens, UniProt P30874). As to the kind of experiment: Radioligand-receptor binding assay, [125I] somatostatin, membranes from SSTR2 expressing CHO-K1 cells. As for the experimental part: These conjugates were also assessed in an in vitro assay evaluating binding to the somatostatin receptor 2 (SSTR2). A radioligand-receptor binding assay was conducted at Eurofins Panlabs (Taiwan) to determine the affinity of conjugates described herein to the SSTR2. The assay measures binding of radiolabeled ligand, [^125I] labeled somatostatin, to human SSTR2 using membrane preparations from SSTR2 expressing CHO-K1 cells. Membranes were incubated with radiolabeled somatostatin (0.03 nM) in the presence of conjugate/compound starting at a dose of 10 uM using 6× serial dilutions to obtain a 10-pt curve. After a four hour incubation, membranes were filtered and washed 3× and counted to determine the remaining [^125I] somatostatin bound to the receptor. IC50 values were determined by a non-linear, least squares regression analysis using MathIQ™ (ID Business Solutions Ltd., UK).

For series [3], the system named is NCI-H524 (ATCC) human lung cancer cells. The format is cell-based. As for the experimental part:
FIG. 1 is a graph of various conjugates represented as bars and showing on the Y-axis their activity in an H524 proliferation assay with and without competition by octreotide. […] This illustrates the suprprising finding that only maytansinoid conjugates show activity that is dependent on the receptor.
Conjugates were assessed in an in vitro assay evaluating inhibition of cell proliferation. NCI-H524 (ATCC) human lung cancer cells were plated in 96 well, V-bottomed plates (Costar) at a concentration of 5,000 cells/well and 24 hours later were treated with compound for 6 hours and further incubated 66 hours. Compound starting dose was 20 μM and three fold serial dilutions were done for a total of ten points. After 6 hours of treatment, cells were spun down, the drug containing media was removed, and fresh complete medium was added and used to resuspend the cells, which were spun again. After removal of the wash media, the cells were resuspended in complete medium, then transferred into white walled, flat bottomed 96 well plates. […] Proliferation was measured using CellTiter Glo reagent using the standard protocol (Promega) and a Glomax multi+detection system (Promega). Percent proliferation inhibition was calculated using the following formula: % inhibition=(control-treatment)/control*100. Control is defined as vehicle alone. IC50 curves were generated using the nonlinear regression analysis (four parameter) with GraphPad Prism 6.
Conjugates were tested for their activity dependence on the somatostatin receptor. Active agent Z in the conjugate was selected from auristatin, carbazitaxel, DM1, doxorubicin, platinum, SN-38 and vinblastine. Active agent Z is connected to octreotide with various linkers. Proliferation IC50 values of the conjugates were measured. Proliferation IC50 values of the conjugates without octreotide competition were also measured. The ratio of IC50 with octreotide competition and IC50 without octreotide competition is an indicator of whether activity is at least particially dependent on bind to the somatostatin receptor. […] Therefore, the activity of conjugates comprising DM1 is dependent on the binding to the somatostatin receptor.

The mark [4] stands for this setting: read-out: H524 IC50 6 h, 6 hours treatment, further 66 hours incubation.
[5] abbreviates: read-out: H524 IC50 with 100 μM octreotide 6 h, with 100 μM octreotide competition, 6 h treatment.

This is an account of results in patent publication US20190125888A1, “TARGETED CONJUGATES AND PARTICLES AND FORMULATIONS THEREOF” (priority 2015, published 2019).

Where two headings read alike, the source gives them in different places.

Sequence of human SSTR2 (P30874 whole entry): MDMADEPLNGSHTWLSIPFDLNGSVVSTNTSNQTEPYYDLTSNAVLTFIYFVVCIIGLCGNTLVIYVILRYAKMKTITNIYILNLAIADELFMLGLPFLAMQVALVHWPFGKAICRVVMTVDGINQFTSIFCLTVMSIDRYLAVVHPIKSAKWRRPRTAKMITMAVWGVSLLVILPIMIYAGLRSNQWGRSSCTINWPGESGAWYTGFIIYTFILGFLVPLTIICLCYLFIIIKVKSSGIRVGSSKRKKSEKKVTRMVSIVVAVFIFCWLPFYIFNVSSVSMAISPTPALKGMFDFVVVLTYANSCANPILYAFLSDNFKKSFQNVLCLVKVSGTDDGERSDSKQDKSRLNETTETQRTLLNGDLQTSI

The Ki is the dissociation constant of the complex between target and ligand, obtained from inhibition or displacement. Read a high Ki as a looser hold on the target. Usually IC50 stands for the midpoint of a concentration-inhibition curve. Consider `COc1cc2cc(c1Cl)N(C)C(=O)C[C@H](OC(=O)[C@H](C)N(C)C(=O)CCSSC[C@H](NC(=O)[C@@H]1CSSC[C@H](NC(=O)[C@@H](Cc3ccccc3)NC(C)=O)C(=O)N[C@@H](Cc3ccc(O)cc3)C(=O)N[C@H](Cc3c[nH]c4ccccc34)C(=O)N[C@@H](CCCCN)C(=O)N[C@@H]([C@@H](C)O)C(=O)N1)C(N)=O)[C@]1(C)O[C@H]1[C@H](C)[C@@H]1C[C@@](O)(NC(=O)O1)[C@H](OC)/C=C/C=C(\C)C2` [Conjugate 27], for which the Ligand charge entry in series [1] was “+1”. In series [2], this compound came in with an inhibition constant Ki of 0.15 nM. Also, the IC50 in series [3] (setting [4]) worked out at 17 nM; in series [3] (setting [5]), 49 nM.

As for `CCNC(=O)N[C@H](Cc1ccccc1)C(=O)N[C@H]1CSSC[C@@H](C(=O)N[C@H](C(=O)N[C@@H](CSSCCC(=O)N(C)[C@@H](C)C(=O)O[C@H]2CC(=O)N(C)c3cc(cc(OC)c3Cl)C/C(C)=C/C=C/[C@@H](OC)[C@@]3(O)C[C@H](OC(=O)N3)[C@@H](C)[C@@H]3O[C@@]23C)C(N)=O)[C@@H](C)O)NC(=O)[C@H]([C@@H](C)O)NC(=O)[C@H](CCCCN)NC(=O)[C@@H](Cc2c[nH]c3ccccc23)NC(=O)[C@H](Cc2ccc(O)cc2)NC1=O` [Conjugate 36], the Ligand charge entry in series [1] is “+1”. In addition, the IC50 in series [3] (setting [4]) was determined as 0.78 nM; in series [3] (setting [5]) it was 10 nM.

Regarding `CCNC(=O)N[C@H](Cc1ccccc1)C(=O)N[C@H]1CSSC[C@@H](C(=O)N[C@H](C(=O)N[C@H](C(N)=O)C(C)(C)SSCCC(=O)N(C)[C@@H](C)C(=O)O[C@H]2CC(=O)N(C)c3cc(cc(OC)c3Cl)C/C(C)=C/C=C/[C@@H](OC)[C@@]3(O)C[C@H](OC(=O)N3)[C@@H](C)[C@@H]3O[C@@]23C)[C@@H](C)O)NC(=O)[C@H]([C@@H](C)O)NC(=O)[C@H](CCCCN)NC(=O)[C@@H](Cc2c[nH]c3ccccc23)NC(=O)[C@H](Cc2ccc(O)cc2)NC1=O` [Conjugate 16], the Ligand charge entry in series [1] is “+1”. Besides, the IC50 is 185 nM in series [3] (setting [4]) and 516 nM in series [3] (setting [5]).

With `COc1cc2cc(c1Cl)N(C)C(=O)C[C@H](OC(=O)[C@H](C)N(C)C(=O)CCSSC[C@H](NC(=O)CC[C@H](NC(=O)[C@@H]1CSSC[C@H](NC(=O)[C@H](N)Cc3ccccc3)C(=O)N[C@@H](Cc3ccc(O)cc3)C(=O)N[C@H](Cc3c[nH]c4ccccc34)C(=O)N[C@@H](CCCCN)C(=O)N[C@@H]([C@@H](C)O)C(=O)N1)C(N)=O)C(N)=O)[C@]1(C)O[C@H]1[C@H](C)[C@@H]1C[C@@](O)(NC(=O)O1)[C@H](OC)/C=C/C=C(\C)C2` [Conjugate 46], in series [1], the Ligand charge result is given as “+2”. In addition, the affinity in series [2], expressed as Ki, was 0.045 nM. The values for the concentration for half-maximal inhibition (IC50) in series [3] (setting [4]) and in series [3] (setting [5]) were 0.3 nM and 195 nM, respectively.

On to `COc1cc2cc(c1Cl)N(C)C(=O)C[C@H](OC(=O)[C@H](C)N(C)C(=O)CCSSCCNC(=O)CC[C@H](NC(=O)[C@@H]1CSSC[C@H](NC(=O)[C@H](N)Cc3ccccc3)C(=O)N[C@@H](Cc3ccc(O)cc3)C(=O)N[C@H](Cc3c[nH]c4ccccc34)C(=O)N[C@@H](CCCCN)C(=O)N[C@@H]([C@@H](C)O)C(=O)N1)C(N)=O)[C@]1(C)O[C@H]1[C@H](C)[C@@H]1C[C@@](O)(NC(=O)O1)[C@H](OC)/C=C/C=C(\C)C2` [Conjugate 47], for which, in series [1], the Ligand charge result is “+2”. In addition, in series [2], the inhibition constant (Ki) is 0.072 nM. The IC50 in series [3] (setting [4]) was found to be 0.7 nM; in series [3] (setting [5]), 210 nM.

Consider `C[C@@H](O)[C@@H]1NC(=O)[C@H](CCCCN)NC(=O)[C@@H](Cc2c[nH]c3ccccc23)NC(=O)[C@H](Cc2ccccc2)NC(=O)[C@@H](NC(=O)[C@H](N)Cc2ccccc2)CSSC[C@@H](C(=O)N[C@H](CO)[C@@H](C)O)NC1=O` [Octreotide, H2N-D-Phe-Cys-Phe-D-Trp-Lys-Thr-Cys-Thr-ol (disulfide bridge Cys2-Cys7), reference compound], for which the “effect on cell proliferation” value in series [3] (octreotide alone) is “no significant effect”.

`COc1cc2cc(c1Cl)N(C)C(=O)C[C@H](OC(=O)[C@H](C)N(C)C(=O)CCSSCCNC(=O)CC[C@H]1C(=O)N[C@@H](Cc3ccc(O)cc3)C(=O)N[C@H](Cc3c[nH]c4ccccc34)C(=O)N[C@@H](CCCCNC(=O)NCCCCCCN)C(=O)N[C@@H]([C@@H](C)O)C(=O)N[C@@H](Cc3ccccc3)C(=O)N1C)[C@]1(C)O[C@H]1[C@H](C)[C@@H]1C[C@@](O)(NC(=O)O1)[C@H](OC)/C=C/C=C(\C)C2` [Conjugate 55]: in series [1], the Ligand charge entry was “+1”. Further, the affinity in series [2] corresponds to a Ki of 110 nM.

Take `COc1cc2cc(c1Cl)N(C)C(=O)C[C@H](OC(=O)[C@H](C)N(C)C(=O)CCSSC[C@@H](NC(=O)[C@@H]1CSSC[C@H](NC(=O)[C@@H](Cc3ccccc3)NC(C)=O)C(=O)N[C@@H](Cc3ccc(O)cc3)C(=O)N[C@H](Cc3c[nH]c4ccccc34)C(=O)N[C@@H](CCCCN)C(=O)N[C@@H]([C@@H](C)O)C(=O)N1)C(N)=O)[C@]1(C)O[C@H]1[C@H](C)[C@@H]1C[C@@](O)(NC(=O)O1)[C@H](OC)/C=C/C=C(\C)C2` [Conjugate 31]: the Ligand charge result in series [1] is “+1”. Besides, the inhibitory constant (Ki) in series [2] was 0.21 nM.

Consider `COc1cc2cc(c1Cl)N(C)C(=O)C[C@H](OC(=O)[C@H](C)N(C)C(=O)CCSSC(C)(C)[C@H](NC(=O)[C@@H](NC(=O)[C@@H]1CSSC[C@H](NC(=O)[C@@H](Cc3ccccc3)NCc3ccccc3)C(=O)N[C@@H](Cc3ccc(O)cc3)C(=O)N[C@H](Cc3c[nH]c4ccccc34)C(=O)N[C@@H](CCCCN)C(=O)N[C@@H]([C@@H](C)O)C(=O)N1)[C@@H](C)O)C(N)=O)[C@]1(C)O[C@H]1[C@H](C)[C@@H]1C[C@@](O)(NC(=O)O1)[C@H](OC)/C=C/C=C(\C)C2` [Conjugate 17], for which the Ligand charge entry in series [1] is listed as “+2”. The half-maximal inhibitory concentration (IC50) in series [3] (setting [4]) was found to be 8.5 nM; in series [3] (setting [5]), 48 nM.

With `COc1cc2cc(c1Cl)N(C)C(=O)C[C@H](OC(=O)[C@H](C)N(C)C(=O)CCSC1CC(=O)N(CCCCCNC(=O)[C@@H](NC(=O)[C@@H]3CSSC[C@H](NC(=O)[C@@H](Cc4ccccc4)NC(=O)NC4CCCCC4)C(=O)N[C@@H](Cc4ccc(O)cc4)C(=O)N[C@H](Cc4c[nH]c5ccccc45)C(=O)N[C@@H](CCCCN)C(=O)N[C@@H]([C@@H](C)O)C(=O)N3)[C@@H](C)O)C1=O)[C@]1(C)O[C@H]1[C@H](C)[C@@H]1C[C@@](O)(NC(=O)O1)[C@H](OC)/C=C/C=C(\C)C2` (stereo partly drawn) [Conjugate 22], the Ligand charge result in series [1] was “+1”. Further, the results for the IC50 in series [3] (setting [4]) and in series [3] (setting [5]) were 2.6 nM and 94 nM, respectively.

In the case of `CCCC(=O)N[C@H](Cc1ccccc1)C(=O)N[C@H]1CSSC[C@@H](C(=O)N[C@H](C(=O)NCCSSC(C)(C)CCC(=O)N(C)[C@@H](C)C(=O)O[C@H]2CC(=O)N(C)c3cc(cc(OC)c3Cl)C/C(C)=C/C=C/[C@@H](OC)[C@@]3(O)C[C@H](OC(=O)N3)[C@@H](C)[C@@H]3O[C@@]23C)[C@@H](C)O)NC(=O)[C@H]([C@@H](C)O)NC(=O)[C@H](CCCCN)NC(=O)[C@@H](Cc2c[nH]c3ccccc23)NC(=O)[C@H](Cc2ccc(O)cc2)NC1=O` [Conjugate 3], the Ligand charge entry in series [1] is listed as “+1”.

`CCNC(=O)N[C@H](Cc1ccccc1)C(=O)N[C@H]1CSSC[C@@H](C(=O)N[C@H](C(=O)NCCCCCN2C(=O)CC(SCCC(=O)N(C)[C@@H](C)C(=O)O[C@H]3CC(=O)N(C)c4cc(cc(OC)c4Cl)C/C(C)=C/C=C/[C@@H](OC)[C@@]4(O)C[C@H](OC(=O)N4)[C@@H](C)[C@@H]4O[C@@]34C)C2=O)[C@@H](C)O)NC(=O)[C@H]([C@@H](C)O)NC(=O)[C@H](CCCCN)NC(=O)[C@@H](Cc2c[nH]c3ccccc23)NC(=O)[C@H](Cc2ccc(O)cc2)NC1=O` (stereo partly drawn) [Conjugate 23]: the Ligand charge entry in series [1] is “+1”. Besides, the concentration for half-maximal inhibition (IC50) in series [3] (setting [4]) worked out at 5 nM; in series [3] (setting [5]), 124 nM.

On to `CCNC(=O)N[C@H](Cc1ccccc1)C(=O)N[C@H]1CSSC[C@@H](C(=O)N[C@H](C(=O)N2CCCCC2)C(C)(C)SSCCC(=O)N(C)[C@@H](C)C(=O)O[C@H]2CC(=O)N(C)c3cc(cc(OC)c3Cl)C/C(C)=C/C=C/[C@@H](OC)[C@@]3(O)C[C@H](OC(=O)N3)[C@@H](C)[C@@H]3O[C@@]23C)NC(=O)[C@H]([C@@H](C)O)NC(=O)[C@H](CCCCN)NC(=O)[C@@H](Cc2c[nH]c3ccccc23)NC(=O)[C@H](Cc2ccc(O)cc2)NC1=O` [Conjugate 33], for which the Ligand charge entry in series [1] is reported as “+1”. The half-maximal inhibitory concentration (IC50) in series [3] (setting [4]) is 265 nM; in series [3] (setting [5]), 462 nM.
